Measurements published in US12042539B2, “Compositions and kits for Omeprazole suspension” (Azurity Pharmaceuticals, Inc., priority 2019, dated 2024).
Converted amounts (≈) assume the structure as drawn. Like-named read-outs stand apart in the source and are kept apart here.

Tests used:
[1] = Related substance (omeprazole impurities) at stability time points; type: physicochemical; settings: Omeprazole API
Source text: Monitoring the trend of increase in chemical impurities/related substances is important with respect to stability of a formulation. Related substance data developed during stability studies of a formulation play a crucial role with respect to determining a useable shelf life for a formulation.
Specification: • a. […] 5-Methoxy-1H-Benzimidazol-2-thiol: NMT 0.50% • c. Omeprazole sulphone N-Oxide: NMT 0.50% • d. Omeprazole N-Oxide: NMT 0.50% • e. Omeprazole Sulphone: NMT 0.50% • f Omeprazole 4-Chloro analog (IMP-H): NMT 0.50% • g. Sulphide (Ufiprazole): NMT 0.50% • h. Desmethoxy Omeprazole: NMT 0.50% • i. Any other individual impurity: NMT 0.20% • j. Total impurities: NMT 2.0%

[2] = cited from earlier work
[3] = cited from earlier work; remark: listed apart in the source
P-glycoprotein = P-glycoprotein (Homo sapiens, UniProt P08183); settings: cited from earlier work
[4] = Phase solubility of omeprazole at different concentrations of poloxamer 188; type: physicochemical; settings: for solubility: thermodynamic from solid, read-out: Soluble fraction
[5] = PXRD of reconstituted suspensions (polymorphic form of omeprazole API); type: physicochemical; settings: 3M and 6M Day 30, 25° C./60% RH and 2-8° C.
Experimental: To evaluate the polymorphic characteristic of omeprazole API during reconstitution stability studies, the reconstituted suspensions were analyzed by X-ray diffraction (XRD) at 3M and 6M time points at 25° C./60% RH and 2-8° C. conditions.

[6] = increase in poloxamer concentration beyond 10 mg/mL; cited from earlier work

Sequence of P-glycoprotein (P08183 whole entry): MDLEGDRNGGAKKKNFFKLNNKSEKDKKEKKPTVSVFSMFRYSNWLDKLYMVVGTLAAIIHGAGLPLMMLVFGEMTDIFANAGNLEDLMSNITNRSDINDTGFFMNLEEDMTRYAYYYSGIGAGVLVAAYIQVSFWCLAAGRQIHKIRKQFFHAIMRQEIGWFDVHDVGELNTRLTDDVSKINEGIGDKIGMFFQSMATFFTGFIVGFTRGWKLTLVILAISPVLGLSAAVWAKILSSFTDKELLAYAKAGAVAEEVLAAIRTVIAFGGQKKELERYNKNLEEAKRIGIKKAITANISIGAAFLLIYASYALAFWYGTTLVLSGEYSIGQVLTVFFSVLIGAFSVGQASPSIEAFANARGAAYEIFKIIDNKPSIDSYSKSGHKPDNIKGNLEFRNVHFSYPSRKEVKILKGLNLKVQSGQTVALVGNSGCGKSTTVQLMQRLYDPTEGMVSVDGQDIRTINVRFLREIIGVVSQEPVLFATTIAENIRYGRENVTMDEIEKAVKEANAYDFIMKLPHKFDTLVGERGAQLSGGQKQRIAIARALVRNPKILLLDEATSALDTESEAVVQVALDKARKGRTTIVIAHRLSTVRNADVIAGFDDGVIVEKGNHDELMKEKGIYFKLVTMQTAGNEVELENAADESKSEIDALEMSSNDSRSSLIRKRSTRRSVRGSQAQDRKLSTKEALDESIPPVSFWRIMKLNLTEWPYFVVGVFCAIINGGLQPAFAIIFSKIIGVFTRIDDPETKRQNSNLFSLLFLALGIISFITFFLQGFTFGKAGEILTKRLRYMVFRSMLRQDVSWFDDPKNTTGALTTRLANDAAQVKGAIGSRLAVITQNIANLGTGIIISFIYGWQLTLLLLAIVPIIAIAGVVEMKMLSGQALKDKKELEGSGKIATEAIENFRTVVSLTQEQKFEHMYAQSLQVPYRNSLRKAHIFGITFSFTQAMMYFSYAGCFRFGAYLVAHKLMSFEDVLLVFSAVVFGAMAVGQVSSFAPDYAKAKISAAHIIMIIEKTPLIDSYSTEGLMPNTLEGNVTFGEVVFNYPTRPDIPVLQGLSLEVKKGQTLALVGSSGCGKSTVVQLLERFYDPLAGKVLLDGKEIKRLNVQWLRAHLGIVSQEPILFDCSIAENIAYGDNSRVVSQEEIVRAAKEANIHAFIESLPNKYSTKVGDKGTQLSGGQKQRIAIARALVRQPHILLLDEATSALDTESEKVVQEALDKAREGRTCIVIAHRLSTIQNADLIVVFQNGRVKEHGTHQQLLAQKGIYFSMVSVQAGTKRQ

SMILES: COc1ccc2[nH]c([S+]([O-])Cc3ncc(C)c(OC)c3C)nc2c1 (centres unmarked) [Omeprazole]
- Related Substance: Omeprazole F&G [1]: 0.031%
- Related Substance: Omeprazole sulphone N-Oxide [1]: Not Detected
- Related Substance: Total impurities [1]: 0.05%
- Related Substance: 5-Methoxy Benzamidazole 2 thiol ([1]; LOQ (0.01%)): Less than LOQ
- Related Substance: Desmethoxy Omeprazole ([1]; LOQ (0.01%)): Less than LOQ
- Related Substance: Omeprazole 4-Chloro analog (IMP-H) ([1]; LOQ (0.01%)): Less than LOQ
- Related Substance: Omeprazole N-Oxide ([1]; LOQ (0.01%)): Less than LOQ
- Related Substance: Omeprazole Sulphide ([1]; LOQ (0.01%)): Less than LOQ
- Related Substance: Omeprazole Sulphone (IMP-A) ([1]; LOQ (0.01%)): Less than LOQ
- Log P [2]: 2.43
- solubility ([2]; in water): Very slightly soluble in water
- half-life ([3]; in vivo): 30 to 60 min
- Peak Plasma concentration, time to achieve ([3]; marketed formulations of omeprazole): very rapidly
- P-gp inhibition effects (P-glycoprotein): does not have P-gp inhibition effects
- P-gp substrate (P-glycoprotein): moderate P-gp substrate
- Soluble fraction (%) ([4]; 0 % w/v Poloxamer Content): 10.9%
- solubility ([4]; 0% w/v poloxamer 188 (base solvent not stated), 0 % w/v Poloxamer Content): 218 µg/mL (≈ 631 µM)
- Soluble fraction (%) ([4]; 0.5 % w/v Poloxamer Content): 15.6%
- Soluble fraction (%) ([4]; 1 % w/v Poloxamer Content): 17.1%
- Soluble fraction (%) ([4]; 2 % w/v Poloxamer Content): 47.8%
- Soluble fraction (%) ([4]; 4 % w/v Poloxamer Content): 47.3%
- Omeprazole solubility ([4]; at higher poloxamer 188 content (above 1% w/v)): increased significantly
- solubility ([4]; poloxamer 188 at 2% w/v (base solvent not stated), aqueous with cosolvent or surfactant or cyclodextrin, 2 % w/v Poloxamer Content): 957 µg/mL (≈ 2770 µM)
- solubility ([4]; poloxamer 188 at 4% w/v (base solvent not stated), aqueous with cosolvent or surfactant or cyclodextrin, 4 % w/v Poloxamer Content): 946 µg/mL (≈ 2740 µM)
- solubility ([4]; poloxamer 188 solution (0.5% w/v), aqueous with cosolvent or surfactant or cyclodextrin, 0.5 % w/v Poloxamer Content): 313 µg/mL (≈ 906 µM)
- solubility ([4]; poloxamer 188 solution (1% w/v), aqueous with cosolvent or surfactant or cyclodextrin, 1 % w/v Poloxamer Content): 342 µg/mL (≈ 990 µM)
- Impact of poloxamer 188 content on omeprazole solubility ([4]; up to 1% w/v poloxamer 188): did not show any significant impact
- Polymorphic form conversion (PXRD) [5]: no polymorphic form conversion

SMILES: CC(C)(C)NCC(O)COc1cccc2c1CC(O)C(O)C2 (centres unmarked) [nadolol]
- Effect of poloxamer on permeability [6]: didn't show a significant effect
